# Laboratory results as given in patent US20170218445A1, “DRUG DISCOVERY METHODS USING PLANT DEVELOPMENTAL BIOLOGY” (SEOUL NATIONAL UNIVERSITY R&DB FOUNDATION, priority 2014, published 2017).
# Test system: A. thaliana seedlings
# Experiment: Growth and development response of A. thaliana seedlings grown in liquid medium with anticancer drug or hot-water extract
# Format: in vivo, Arabidopsis thaliana
# Details: for generation of lateral roots: anticancer drug treatment; for hypocotyl length growth depending on concentration: statistical computing, FIG. 11
# Procedure: The Columbia seeds collected from wild-type A. thaliana plants were sterilized and then kept in a dark place at 4° C. for 3 days to enhance germination rate thereof. The wild-type A. thaliana seeds sown on an MS solid medium containing agar were germinated at 22° C. and on the long day condition of 16 hours the day/8 hours night and allowed to grow the A. thaliana seedlings for three days.
# The undiluted extract of traditional herbal medicinal material described above was diluted at the ratios of 0.5×, 0.25× and 0.05×, and the MS liquid medium of 1 ml was mixed well with distilled water to make a total volume of 2 ml. in a 12-well cell culture plate. About ten A. thaliana seedlings were planted in each well and the plates were put on a shaker to cultivate them at 100 rpm for three days. Growth and development of the arabidopsis seedlings was analyzed after three days. Each test was carried out in 3 replicates.
# The analysis of A. thaliana seedling response to anticancer drugs was made in the same manner, except that the anticancer drugs were applied instead of the traditional herbal medicinal material extract.
# Root length, the number of lateral roots and hypocotyl length of the A. thaliana seedlings were measured in order to find the difference in developmental biology shown by the response of A. thaliana seedlings to the anticancer drugs and the extract. The ImageJ software (see rsb.info.nih.gov/ij/) was used to measure the respective lengths in images of the photograph file.
# Crude extracts were made with the traditional herbal medicinal materials of each prescription and medicinal material components thereof, respectively, and the ⅕-fold-diluted solution was used as a first effective concentration. The solution was produced by adding 0.4 ml of the crude extract to 1 ml of the 0.5× MS medium and 0.6 ml of water.
# For making more quantitative analysis of the reaction to respective traditional herbal medicinal materials, the number of lateral roots were measured for 12 or more A. thaliana seeedlings in each treatment group. […]
# [1] = vs DMSO-treated control seedlings, FIG. 8
Structure (SMILES),"root morphology (2 uM, three days after treatment, vs water-treated control roots, FIG. 9)",generation of lateral roots (FIG. 8),hypocotyl length growth depending on concentration,"number of lateral roots generated (treated or not with taxol, FIG. 8)",hypocotyl growth [1],root growth [1],"trichome morphology (branches) (vs control group, FIG. 10)",generation of lateral roots at low concentration (0.05 uM)
"CC(=O)O[C@H]1C(=O)[C@@]2(C)[C@H]([C@H](OC(=O)c3ccccc3)[C@]3(O)C[C@H](OC(=O)[C@H](O)[C@@H](NC(=O)c4ccccc4)c4ccccc4)C(C)=C1C3(C)C)[C@]1(OC(C)=O)CO[C@@H]1C[C@@H]2O [taxol, Paclitaxel]",dense root hairs and opaque epidermal cells,not significantly affected,inhibited in a significant level,Approximately five,inhibited in proportion to the concentrations,inhibited in proportion to the concentrations,changed from the three-branch type to the one-branch type,–
CC[C@@]1(O)C(=O)OCc2c1cc1n(c2=O)Cc2cc3ccccc3nc2-1 [camptothecin],–,markedly inhibited,inhibited in a significant level,–,–,–,–,inhibited generation of lateral roots
